Test results reported in ChEMBL document CHEMBL5518186, “Discovery of the cereblon-recruiting tubulin PROTACs effective in overcoming Taxol resistance in vitro and in vivo” (Eur J Med Chem, 2024).
The source made the active and inactive calls. No cut-off for these calls is given here.

What was measured:
[1] = system: HepG2; test: Antiproliferative activity against human HepG2 cells incubated for 72 hrs; assay type: functional, cell-based; conditions: HepG2, 72 h
[2] = system: MGC-803; test: Antiproliferative activity against human MGC-803 cells incubated for 72 hrs; assay type: functional, cell-based; conditions: MGC-803, 72 h
[3] = target: T1, Protein cereblon/Tubulin beta-3 chain (Homo sapiens, UniProt Q13509+Q96SW2); test: Protac activity at CRBN/beta3-tubulin in human A549 cells assessed as reduction in beta3-tubulin level at 0.01 to 1 uM incubated for 48 hrs by immunoblotting analysis; assay type: cell-based; conditions: dose 0.01-1 µM
Target sequence in this assay (Q13509 whole entry, looked up): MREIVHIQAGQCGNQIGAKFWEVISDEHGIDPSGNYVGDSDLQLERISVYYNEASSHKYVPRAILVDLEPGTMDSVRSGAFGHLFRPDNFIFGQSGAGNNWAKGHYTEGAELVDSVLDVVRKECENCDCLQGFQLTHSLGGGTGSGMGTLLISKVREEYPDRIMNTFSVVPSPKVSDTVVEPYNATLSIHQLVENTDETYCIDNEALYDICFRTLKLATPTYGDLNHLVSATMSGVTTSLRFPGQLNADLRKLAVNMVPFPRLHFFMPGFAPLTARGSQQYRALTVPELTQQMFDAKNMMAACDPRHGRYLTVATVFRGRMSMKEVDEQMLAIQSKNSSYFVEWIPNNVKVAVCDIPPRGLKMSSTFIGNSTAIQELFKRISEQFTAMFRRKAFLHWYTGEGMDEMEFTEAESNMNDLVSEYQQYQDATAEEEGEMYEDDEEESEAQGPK
Target sequence in this assay (Q96SW2 whole entry, looked up): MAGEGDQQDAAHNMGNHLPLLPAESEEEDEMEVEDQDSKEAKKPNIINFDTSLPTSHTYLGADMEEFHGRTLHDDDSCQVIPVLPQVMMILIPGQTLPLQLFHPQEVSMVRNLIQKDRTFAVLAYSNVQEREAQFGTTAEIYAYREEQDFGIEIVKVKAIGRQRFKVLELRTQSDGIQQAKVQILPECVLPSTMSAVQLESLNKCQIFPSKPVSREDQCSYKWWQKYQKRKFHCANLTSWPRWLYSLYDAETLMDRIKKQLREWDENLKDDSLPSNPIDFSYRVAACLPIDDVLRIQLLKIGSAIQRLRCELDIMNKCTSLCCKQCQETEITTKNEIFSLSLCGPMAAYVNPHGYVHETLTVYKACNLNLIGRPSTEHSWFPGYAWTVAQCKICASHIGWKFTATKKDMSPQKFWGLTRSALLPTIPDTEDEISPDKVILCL

[4] = target: T2, Protein cereblon/Tubulin beta (Homo sapiens) (UniProt P68371+Q9H4B7+Q13509+P04350+Q3ZCM7+P07437+Q13885+Q9BVA1+Q9BUF5+Q96SW2+A6NNZ2); test: (§1) Protac activity at CRBN/beta-tubulin in human A549 cells assessed as reduction in beta-tubulin level incubated for 48 hrs by immunoblotting analysis; assay type: cell-based
[5] = target: Protein cereblon/Tubulin beta; test: as §1; assay type: cell-based
[6] = target: T3, Protein cereblon-alpha tubulin (Homo sapiens) (UniProt P0DPH7+P68366+Q71U36+P68363+Q9BQE3+Q6PEY2+A6NHL2+Q9NY65+Q96SW2); test: (§2) Protac activity at CRBN/alpha-tubulin in human A549/Taxol cells assessed as reduction in alpha-tubulin level incubated for 48 hrs by immunoblotting analysis; assay type: cell-based
[7] = target: Protein cereblon-alpha tubulin; test: as §2; assay type: cell-based
[8] = target: T2, Protein cereblon/Tubulin beta (Homo sapiens); test: (§3) Protac activity at CRBN/beta-tubulin in human A549/Taxol cells assessed as reduction in beta-tubulin level incubated for 48 hrs by immunoblotting analysis; assay type: cell-based
[9] = target: Protein cereblon/Tubulin beta; test: as §3; assay type: cell-based
[10] = target: T1, Protein cereblon/Tubulin beta-3 chain; test: Protac activity at CRBN/beta3-tubulin in human A549/Taxol cells assessed as reduction in beta3-tubulin level incubated for 48 hrs by immunoblotting analysis; assay type: cell-based
[11] = target: T3, Protein cereblon-alpha tubulin (Homo sapiens); test: Protac activity at CRBN/alpha-tubulin in human HeLa cells assessed as reduction in alpha-tubulin level at 10 to 1000 nM incubated for 48 hrs by immunoblotting analysis; assay type: cell-based; conditions: dose 10-1000 nM
[12] = target: T1, Protein cereblon/Tubulin beta-3 chain; test: Protac activity at CRBN/beta3-tubulin in human HeLa cells assessed as reduction in beta3-tubulin level at 10 to 1000 nM incubated for 48 hrs by immunoblotting analysis; assay type: cell-based; conditions: dose 10-1000 nM
Target sequence in this assay (Q13509 whole entry, looked up): as the sequence (Q13509 whole entry, looked up) above
Target sequence in this assay (Q96SW2 whole entry, looked up): as the sequence (Q96SW2 whole entry, looked up) above

[13] = target: T2, Protein cereblon/Tubulin beta (Homo sapiens); test: Protac activity at CRBN/beta-tubulin in human MCF7 cells assessed as reduction in beta-tubulin level at 10 to 1000 nM incubated for 48 hrs by immunoblotting analysis; assay type: cell-based; conditions: dose 10-1000 nM
[14] = target: T1, Protein cereblon/Tubulin beta-3 chain; test: Protac activity at CRBN/beta3-tubulin in human MCF7 cells assessed as reduction in beta3-tubulin level at 10 to 1000 nM incubated for 48 hrs by immunoblotting analysis; assay type: cell-based; conditions: dose 10-1000 nM
Target sequence in this assay (Q13509 whole entry, looked up): as the sequence (Q13509 whole entry, looked up) above
Target sequence in this assay (Q96SW2 whole entry, looked up): as the sequence (Q96SW2 whole entry, looked up) above

[15] = target: T1, Protein cereblon/Tubulin beta-3 chain; test: Protac activity at CRBN/beta3-tubulin in human MGC-803 cells assessed as reduction in beta3-tubulin level at 10 to 1000 nM incubated for 48 hrs by immunoblotting analysis; assay type: cell-based; conditions: dose 10-1000 nM
Target sequence in this assay (Q13509 whole entry, looked up): as the sequence (Q13509 whole entry, looked up) above
Target sequence in this assay (Q96SW2 whole entry, looked up): as the sequence (Q96SW2 whole entry, looked up) above

[16] = target: T2, Protein cereblon/Tubulin beta (Homo sapiens); test: Protac activity at CRBN/beta-tubulin in human A549 cells assessed as reduction in beta-tubulin level at 0.25 uM after 48 hrs by immunoblotting analysis; assay type: cell-based; parameters: scale not given: the % may be the effect or the level left
[17] = target: T2, Protein cereblon/Tubulin beta (Homo sapiens); test: Protac activity at CRBN/beta-tubulin in human A549 cells assessed as reduction in beta-tubulin level at 0.25 uM pretreated for 48 hrs followed by compound washout and measured upto 12 hrs by immunoblotting analysis; assay type: cell-based
[18] = target: T1, Protein cereblon/Tubulin beta-3 chain; test: Protac activity at CRBN/beta3-tubulin in human A549 cells assessed as reduction in beta3-tubulin level at 0.25 uM pretreated for 48 hrs followed by compound washout and measured after 24 hrs by immunoblotting analysis; assay type: cell-based
Target sequence in this assay (Q13509 whole entry, looked up): as the sequence (Q13509 whole entry, looked up) above
Target sequence in this assay (Q96SW2 whole entry, looked up): as the sequence (Q96SW2 whole entry, looked up) above

[19] = target: T2, Protein cereblon/Tubulin beta (Homo sapiens); test: Protac activity at CRBN/beta-tubulin in human A549 cells assessed as reduction in beta-tubulin level at 0.25 uM pretreated with pomalidomide for 2 hrs followed by compound addition and measured after 24 hrs by immunoblotting analysis; assay type: cell-based
[20] = target: T1, Protein cereblon/Tubulin beta-3 chain; test: Protac activity at CRBN/beta3-tubulin in human A549 cells assessed as reduction in beta3-tubulin level at 0.25 uM pretreated with CA-4 for 2 hrs followed by compound addition and measured after 24 hrs by immunoblotting analysis; assay type: cell-based
Target sequence in this assay (Q13509 whole entry, looked up): as the sequence (Q13509 whole entry, looked up) above
Target sequence in this assay (Q96SW2 whole entry, looked up): as the sequence (Q96SW2 whole entry, looked up) above

[21] = target: T1, Protein cereblon/Tubulin beta-3 chain; test: Protac activity at CRBN/beta3-tubulin in human A549/Taxol cells assessed as reduction in beta3-tubulin level at 0.25 uM pretreated with MG-132 followed by compound addition and measured after 48 hrs by immunoblotting analysis; assay type: cell-based
[22] = target: T1, Protein cereblon/Tubulin beta-3 chain; test: Protac activity at CRBN/beta3-tubulin in human A549/Taxol cells assessed as reduction in beta3-tubulin level at 0.25 uM pretreated with pomalidomide for 2 hrs followed by compound addition and measured after 48 hrs by immunoblotting analysis; assay type: cell-based
[23] = target: T3, Protein cereblon-alpha tubulin (Homo sapiens); test: Protac activity at CRBN/alpha-tubulin in human A549/Taxol cells assessed as reduction in alpha-tubulin level at 0.25 uM pretreated with CA-4 for 2 hrs followed by compound addition and measured after 48 hrs by immunoblotting analysis; assay type: cell-based
[24] = target: T1, Protein cereblon/Tubulin beta-3 chain; test: Protac activity at CRBN/beta3-tubulin in human A549/Taxol cells assessed as reduction in beta3-tubulin level at 0.25 uM pretreated with CA-4 for 2 hrs followed by compound addition and measured after 48 hrs by immunoblotting analysis; assay type: cell-based
[25] = Resistance index, ratio of IC50 for human A549/Taxol cells to IC50 for human A549 cells; assay type: functional
[26] = Resistance index, ratio of IC50 for human MCF7/Taxol cells to IC50 for human MCF7 cells; assay type: functional
[27] = system: A549; test: Inhibition of colony formation in human A549 cells incubated for 24 hrs followed by media replacement at every 3 days for 14 days by crystal violet staining based assay; assay type: functional, cell-based; conditions: dose 2-50 nM, time 14.0 day
[28] = system: A549; test: Induction of cell cycle arrest in human A549 cells assessed as accumulation of cells at S phase at 0.002 uM incubated for 24 hrs by PI staining based flow cytometry analysis (reference value: 1.39%); assay type: functional
[29] = system: A549; test: Induction of cell cycle arrest in human A549 cells assessed as accumulation of cells at G2/M phase at 0.002 uM incubated for 24 hrs by PI staining based flow cytometry analysis (reference value: 31.86%); assay type: functional
[30] = system: A549; test: Induction of cell cycle arrest in human A549 cells assessed as accumulation of cells at G0/G1 phase at 0.01 uM incubated for 24 hrs by PI staining based flow cytometry analysis (reference value: 66.75%); assay type: functional
[31] = system: A549/TR; test: Induction of cell cycle arrest in human A549/Taxol cells assessed as accumulation of cells at G0/G1 phase at 0.002 uM incubated for 24 hrs by PI staining based flow cytometry analysis (reference value: 77.86%); assay type: functional
[32] = system: A549/TR; test: Induction of cell cycle arrest in human A549/Taxol cells assessed as accumulation of cells at G2/M phase at 0.05 uM incubated for 24 hrs by PI staining based flow cytometry analysis (reference value: 17.02%); assay type: functional
[33] = system: HUVEC; test: Antiangiogenic activity in HUVECs assessed as reduction in tube length at 2.5 nM incubated for 6 to 8 hrs by inverted microscopic analysis; assay type: functional, cell-based; conditions: Homo sapiens, time 6-8 hrs
[34] = system: HepG2; test: Induction of apoptosis in human HepG2 cells; assay type: functional, cell-based
[35] = system: HepG2; test: Induction of DNA damage in human HepG2 cells assessed as gamma-H2AX level; assay type: functional, cell-based
[36] = system: HepG2; test: Inhibition of cell migration in human HepG2 cells; assay type: functional, cell-based

COc1ccc(/C=C\c2cc(OC)c(OC)c(OC)c2)cc1OC(=O)CCCNc1cccc2c1C(=O)N(C1CCC(=O)NC1=O)C2=O (configuration not stated)
IC50 [1]: 4 nM
IC50 [2]: 8 nM
Activity [3]: Active
Activity [4]: Dose-Dependent Effect
DC50 [5]: 856 nM
Activity [6]: Dose-Dependent Effect
DC50 [7]: 32 nM
Activity [8]: Dose-Dependent Effect
DC50 [9]: 972 nM
Activity [10]: Dose-Dependent Effect
DC50 [10]: 5 nM
Activity [11]: Active
Activity [12]: Active
Activity [13]: Active
Activity [14]: Active
Activity [15]: Active
Activity [16]: 31.1%
Activity [17]: Active
Activity [18]: inactive
Activity [19]: inactive
Activity [20]: inactive
Activity [21]: inactive
Activity [22]: inactive
Activity [23]: inactive
Activity [24]: inactive
Ratio IC50 [25]: 0.5
Ratio IC50 [26]: 0.5
inhibition [27]: Dose-Dependent Effect
Activity [28]: 5.65%
Activity [29]: 37.03%
Activity [30]: 16.29%
Activity [31]: 67.61%
Activity [32]: 66.57%
Activity [33]: Active
Activity [34]: Active
Activity [35]: Active
inhibition [36]: Dose-Dependent Effect
